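Five concentrations, 48 hours, 96-well plates. GI50: concentration for 50% inhibition of growth. Definition used: TGI = concentration required for complete inhibition of growth.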
What was measured:
Assay in all cases: inhibition of tumour cell growth, NCI panel, 48 h
[1] = system: 786-0 renal
[2] = system: A498 renal
[3] = system: A549 NSCLC
[4] = system: ACHN renal
[5] = system: BT-549 breast
[6] = system: CAKI-1 renal
[7] = system: CCRF-CEM leukemia
[8] = system: COLO 205 colon
[9] = system: DU-145 prostate
[10] = system: EKVX NSCLC
[11] = system: HCC-2998 colon
[12] = system: HCT-116 colon
[13] = system: HCT-15 colon
[14] = system: HL-60(TB) leukemia
[15] = system: HOP-62 NSCLC
[16] = system: HOP-92 NSCLC
[17] = system: HS 578T breast
[18] = system: HT29 colon
[19] = system: K-562 leukemia
[20] = system: KM12 colon
[21] = system: LOX IMVI melanoma
[22] = system: M14 melanoma
[23] = system: MALME-3M melanoma
[24] = system: MCF7 breast
[25] = system: MDA-MB-231 breast
[26] = system: MDA-MB-435
[27] = system: MOLT-4 leukemia
[28] = system: NCI-H226 lung
[29] = system: NCI-H23 lung
[30] = system: NCI-H460 lung
[31] = system: NCI-H522 lung
[32] = system: NCI/ADR-RES ovarian
[33] = system: OVCAR-3 ovarian
[34] = system: OVCAR-4 ovarian
[35] = system: OVCAR-5 ovarian
[36] = system: OVCAR-8 ovarian
[37] = system: PC-3 prostate
[38] = system: RPMI-8226 leukemia
[39] = system: RXF 393 renal
[40] = system: SF-268 CNS
[41] = system: SF-295 CNS
[42] = system: SF-539 CNS
[43] = system: SK-MEL-2 melanoma
[44] = system: SK-MEL-28 melanoma
[45] = system: SK-MEL-5 melanoma
[46] = system: SK-OV-3 ovarian
[47] = system: SN12C renal
[48] = system: SNB-19 CNS
[49] = system: SNB-75 CNS
[50] = system: SW-620 colon
[51] = system: T-47D breast
[52] = system: TK-10 renal
[53] = system: U251 CNS
[54] = system: UACC-257 melanoma
[55] = system: UACC-62 melanoma
[56] = system: UO-31 renal
[57] = system: IGROV1 ovarian
[58] = system: SR leukemia

SMILES: CC(C)(C)OC(=O)NCCCCCCCCCCn1c2c(c3ccccc3c1=O)C(=O)c1ccccc1-2
- GI50 [1]: 20.2 µM
- TGI [1]: > 100 µM
- GI50 [2]: 26.2 µM
- TGI [2]: 66 µM
- GI50 [3]: > 100 µM
- TGI [3]: > 100 µM
- GI50 [4]: 18.5 µM
- TGI [4]: 66 µM
- GI50 [5]: 57.5 µM
- TGI [5]: > 100 µM
- GI50 [6]: 27.9 µM
- TGI [6]: > 100 µM
- GI50 [7]: 20 µM
- TGI [7]: > 100 µM
- GI50 [8]: > 100 µM
- TGI [8]: > 100 µM
- GI50 [9]: 96.6 µM
- TGI [9]: > 100 µM
- GI50 [10]: > 100 µM
- TGI [10]: > 100 µM
- GI50 [11]: > 100 µM
- TGI [11]: > 100 µM
- GI50 [12]: 60 µM
- TGI [12]: > 100 µM
- GI50 [13]: > 100 µM
- TGI [13]: > 100 µM
- GI50 [14]: 32.6 µM
- TGI [14]: > 100 µM
- GI50 [15]: 29.1 µM
- TGI [15]: > 100 µM
- GI50 [16]: 9.92 µM
- TGI [16]: 35.2 µM
- GI50 [17]: 24.6 µM
- TGI [17]: > 100 µM
- GI50 [18]: > 100 µM
- TGI [18]: > 100 µM
- GI50 [19]: 27.4 µM
- TGI [19]: > 100 µM
- GI50 [20]: > 100 µM
- TGI [20]: > 100 µM
- GI50 [21]: > 100 µM
- TGI [21]: > 100 µM
- GI50 [22]: > 100 µM
- TGI [22]: > 100 µM
- GI50 [23]: > 100 µM
- TGI [23]: > 100 µM
- GI50 [24]: > 100 µM
- TGI [24]: > 100 µM
- GI50 [25]: 17.9 µM
- TGI [25]: 85.9 µM
- GI50 [26]: > 100 µM
- TGI [26]: > 100 µM
- GI50 [27]: 16.2 µM
- TGI [27]: 31.2 µM
- GI50 [28]: > 100 µM
- TGI [28]: > 100 µM
- GI50 [29]: 34.2 µM
- TGI [29]: > 100 µM
- GI50 [30]: > 100 µM
- TGI [30]: > 100 µM
- GI50 [31]: 86.1 µM
- TGI [31]: > 100 µM
- GI50 [32]: > 100 µM
- TGI [32]: > 100 µM
- GI50 [33]: > 100 µM
- TGI [33]: > 100 µM
- GI50 [34]: > 100 µM
- TGI [34]: > 100 µM
- GI50 [35]: > 100 µM
- TGI [35]: > 100 µM
- GI50 [36]: 89.9 µM
- TGI [36]: > 100 µM
- GI50 [37]: > 100 µM
- TGI [37]: > 100 µM
- GI50 [38]: 79.7 µM
- TGI [38]: > 100 µM
- GI50 [39]: 13 µM
- TGI [39]: 37.4 µM
- GI50 [40]: 21.9 µM
- TGI [40]: > 100 µM
- GI50 [41]: 30.9 µM
- TGI [41]: > 100 µM
- GI50 [42]: 43.1 µM
- TGI [42]: > 100 µM
- GI50 [43]: 21.1 µM
- TGI [43]: 49.7 µM
- GI50 [44]: > 100 µM
- TGI [44]: > 100 µM
- GI50 [45]: > 100 µM
- TGI [45]: > 100 µM
- GI50 [46]: 40.3 µM
- TGI [46]: > 100 µM
- GI50 [47]: > 100 µM
- TGI [47]: > 100 µM
- GI50 [48]: 44.1 µM
- TGI [48]: > 100 µM
- GI50 [49]: 5.92 µM
- TGI [49]: 28.6 µM
- GI50 [50]: > 100 µM
- TGI [50]: > 100 µM
- GI50 [51]: > 100 µM
- TGI [51]: > 100 µM
- GI50 [52]: 20.3 µM
- TGI [52]: 52.1 µM
- GI50 [53]: 29 µM
- TGI [53]: > 100 µM
- GI50 [54]: > 100 µM
- TGI [54]: > 100 µM
- GI50 [55]: 43.9 µM
- TGI [55]: > 100 µM
- GI50 [56]: > 100 µM
- TGI [56]: > 100 µM

SMILES: COc1ccc(-c2nc(-c3nc4ccc(C(F)(F)F)cc4[nH]3)c3ccccn23)cc1
- GI50 [1]: > 100 µM
- TGI [1]: > 100 µM
- GI50 [2]: > 100 µM
- TGI [2]: > 100 µM
- GI50 [3]: 28.5 µM
- TGI [3]: > 100 µM
- GI50 [4]: 63.5 µM
- TGI [4]: > 100 µM
- GI50 [5]: > 100 µM
- TGI [5]: > 100 µM
- GI50 [6]: > 100 µM
- TGI [6]: > 100 µM
- GI50 [7]: 7.4 µM
- TGI [7]: > 100 µM
- GI50 [8]: > 100 µM
- TGI [8]: > 100 µM
- GI50 [9]: > 100 µM
- TGI [9]: > 100 µM
- GI50 [11]: 51.8 µM
- TGI [11]: > 100 µM
- GI50 [12]: 26.1 µM
- TGI [12]: > 100 µM
- GI50 [13]: > 100 µM
- TGI [13]: > 100 µM
- GI50 [14]: > 100 µM
- TGI [14]: > 100 µM
- GI50 [15]: 38 µM
- TGI [15]: > 100 µM
- GI50 [16]: > 100 µM
- TGI [16]: > 100 µM
- GI50 [17]: > 100 µM
- TGI [17]: > 100 µM
- GI50 [18]: 58.2 µM
- TGI [18]: > 100 µM
- GI50 [57]: > 100 µM
- TGI [57]: > 100 µM
- GI50 [19]: 35.3 µM
- TGI [19]: > 100 µM
- GI50 [20]: 36.4 µM
- TGI [20]: > 100 µM
- GI50 [21]: 31.3 µM
- TGI [21]: > 100 µM
- GI50 [22]: 83.1 µM
- TGI [22]: > 100 µM
- GI50 [23]: > 100 µM
- TGI [23]: > 100 µM
- GI50 [24]: 26.3 µM
- TGI [24]: > 100 µM
- GI50 [25]: 50.6 µM
- TGI [25]: > 100 µM
- GI50 [26]: 47 µM
- TGI [26]: > 100 µM
- GI50 [27]: 2.81 µM
- TGI [27]: > 100 µM
- GI50 [29]: > 100 µM
- TGI [29]: > 100 µM
- GI50 [30]: 9.73 µM
- TGI [30]: > 100 µM
- GI50 [31]: > 100 µM
- TGI [31]: > 100 µM
- GI50 [32]: 85.3 µM
- TGI [32]: > 100 µM
- GI50 [33]: > 100 µM
- TGI [33]: > 100 µM
- GI50 [35]: > 100 µM
- TGI [35]: > 100 µM
- GI50 [36]: 22.7 µM
- TGI [36]: > 100 µM
- GI50 [37]: 4.73 µM
- TGI [37]: > 100 µM
- GI50 [39]: 30.5 µM
- TGI [39]: > 100 µM
- GI50 [40]: > 100 µM
- TGI [40]: > 100 µM
- GI50 [41]: > 100 µM
- TGI [41]: > 100 µM
- GI50 [42]: > 100 µM
- TGI [42]: > 100 µM
- GI50 [43]: > 100 µM
- TGI [43]: > 100 µM
- GI50 [44]: > 100 µM
- TGI [44]: > 100 µM
- GI50 [45]: 47 µM
- TGI [45]: > 100 µM
- GI50 [46]: > 100 µM
- TGI [46]: > 100 µM
- GI50 [47]: > 100 µM
- TGI [47]: > 100 µM
- GI50 [48]: > 100 µM
- TGI [48]: > 100 µM
- GI50 [49]: 48.1 µM
- TGI [49]: > 100 µM
- GI50 [58]: 32.3 µM
- TGI [58]: > 100 µM
- GI50 [50]: > 100 µM
- TGI [50]: > 100 µM
- GI50 [51]: 5.33 µM
- TGI [51]: > 100 µM
- GI50 [52]: > 100 µM
- TGI [52]: > 100 µM
- GI50 [53]: > 100 µM
- TGI [53]: > 100 µM
- GI50 [54]: > 100 µM
- TGI [54]: > 100 µM
- GI50 [55]: 51.1 µM
- TGI [55]: > 100 µM
- GI50 [56]: > 100 µM
- TGI [56]: > 100 µM

Reference: PubChem BioAssay (NCI)
